Experiments:
AMARE [1] = assay: Pre-emergence herbicidal action against AMARE; format: in vivo, Amaranthus retroflexus; conditions: scored visually after about 3 weeks vs untreated controls; for Pre-emergence action against AMARE in %: 1280 g/ha
Summary of the method: (§1)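 Visual percent activity (100% = plants dead, 0% = like control) scored about 3 weeks after pre-emergence treatment in greenhouse. Compounds as WP or EC, applied to covering soil surface with 0.5% additive, 600 L/ha water, at 1280 or 320 g/ha.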

MATIN [2] = assay: Pre-emergence herbicidal action against MATIN; format: in vivo, Matricaria inodora; conditions: 1280 g/ha, scored visually after about 3 weeks vs untreated controls
Description: (§2) Seeds of mono- and dicotyledonous weed plants are placed in plastic pots in sandy loam soil (doubly sown with one species each of mono- or dicotyledonous weed plants per pot) and covered with soil. The compounds of the invention, formulated in the form of wettable powders (WP) or as emulsion concentrates (EC), are then applied onto the surface of the covering soil as aqueous suspension or emulsion with addition of 0.5% additive at a water application rate equivalent to 600 litres per hectare. After the treatment, the pots are placed in a greenhouse and kept under good growth conditions for the trial plants. After about 3 weeks, the effect of the preparations is scored visually in comparison with untreated controls as percentages. For example, 100% activity=the plants have died, 0% activity=like control plants. [table] Tables 4.1-4.15 below show the effects of selected compounds of the general formula (I) according to Tables 1 to 3 on various harmful plants at an application rate corresponding to 1280 or 320 g/ha, which have been obtained by the aforementioned experimental method.

VERPE [3] = assay: Pre-emergence herbicidal action against VERPE; format: in vivo, Veronica persica; conditions: 320 g/ha, scored visually after about 3 weeks vs untreated controls
Description: as §2

AMARE [4] = assay: Post-emergence herbicidal action against AMARE; format: in vivo, Amaranthus retroflexus; conditions: 1280 g/ha, visual rating about 3 weeks after treatment
Summary of the method: (§3)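 Herbicidal effect, rated visually about 3 weeks after treatment as percent versus untreated controls. Test plants in sandy loam had received a foliar application at the one-leaf stage of 1280 or 320 g/ha, formulated as WP or EC with 0.5% additive in 600 litres per hectare water.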

MATIN [5] = assay: Post-emergence herbicidal action against MATIN; format: in vivo, Matricaria inodora; conditions: 1280 g/ha, visual rating about 3 weeks after treatment
Summary of the method: as §3

PHBPU = assay: Post-emergence herbicidal action against PHBPU; format: in vivo, Pharbitis purpurea; conditions: 320 g/ha, visual rating about 3 weeks after treatment
Method: (§4) [table] Seeds of mono- and dicotyledonous weed plants are placed in plastic pots in sandy loam soil (twin sowing with one species each of mono- or dicotyledonous weed plants per pot), covered with soil and cultivated in a greenhouse under controlled growth conditions. 2 to 3 weeks after sowing, the test plants are treated at the one-leaf stage. The compounds of the invention, formulated in the form of wettable powders (WP) or as emulsion concentrates (EC), are applied to the green parts of the plants as aqueous suspension or emulsion with addition of 0.5% additive at a water application rate equivalent to 600 litres per hectare. After the test plants have been kept in the greenhouse under optimum growth conditions for about 3 weeks, the activity of the preparations is rated visually in comparison to untreated controls. For example, 100% activity=the plants have died, 0% activity=like control plants. Tables 5.1-5.16 below show the effects of selected compounds of the general formula (I) according to Tables 1 to 3 on various harmful plants at an application rate corresponding to 1280 or 320 g/ha, which have been obtained by the aforementioned experimental method.

STEME [6] = assay: Post-emergence herbicidal action against STEME; format: in vivo, Stellaria media; conditions: visual rating about 3 weeks after treatment
Summary of the method: as §3

VIOTR = assay: Post-emergence herbicidal action against VIOTR; format: in vivo, Viola tricolor; conditions: 320 g/ha, visual rating about 3 weeks after treatment
Method: as §4

ECHCG [7] = assay: Pre-emergence herbicidal action against ECHCG; format: in vivo, Echinochloa crus-galli; conditions: scored visually after about 3 weeks vs untreated controls, 100% = plants have died, 0% = like control plants
Summary of the method: as §1

SETVI [8] = assay: Pre-emergence herbicidal action against SETVI; format: in vivo, Setaria viridis; conditions: 1280 g/ha, scored visually after about 3 weeks vs untreated controls
Summary of the method: as §1

STEME [9] = assay: Pre-emergence herbicidal action against STEME; format: in vivo, Stellaria media; conditions: 1280 g/ha, scored visually after about 3 weeks vs untreated controls
Summary of the method: as §1

harmful plants = assay: Pre-emergence herbicidal action, summary of Tables 4.1-4.15; format: in vivo; conditions: result in words
Description: as §2, with “plants.” for “plants. [table] Tables 4.1-4.15 below show the effects of selected compounds of the general formula (I) according to Tables 1 to 3 on various harmful plants at an application rate corresponding to 1280 or 320 g/ha, which have been obtained by the aforementioned experimental method.”
Tables 4.1-4.15 below show the effects of selected compounds of the general formula (I) according to Tables 1 to 3 on various harmful plants at an application rate corresponding to 1280 or 320 g/ha, which have been obtained by the aforementioned experimental method.
For example, compounds no. I-008, I-056, I-057, I-061, I-067, I-070 and I-072 applied by the pre-emergence method have very good action (80% to 100% herbicidal action) against harmful plants such as Alopecurus myosuroides, Amaranthus retroflexus, Matricaria inodora, Polygonum convolvulus, Setaria viridis and Stellaria media at an application rate of 1.28 kg of active substance or less per hectare.

VERPE [10] = assay: Post-emergence herbicidal action against VERPE; format: in vivo, Veronica persica; conditions: 320 g/ha, visual rating about 3 weeks after treatment
Method: as §4

ECHCG [11] = assay: Post-emergence herbicidal action against ECHCG; format: in vivo, Echinochloa crus-galli; conditions: 1280 g/ha, post-emergence at one-leaf stage, rated visually after about 3 weeks vs untreated controls
Method: as §4

SETVI [12] = assay: Post-emergence herbicidal action against SETVI; format: in vivo, Setaria viridis; conditions: 1280 g/ha, post-emergence at one-leaf stage, rated visually after about 3 weeks vs untreated controls
Summary of the method: as §3

| SMILES | Pre-emergence action at 320 g/ha against AMARE in % (AMARE [1]; 320 g/ha, 100% = plants have died, 0% = like control plants) | Pre-emergence action against AMARE in % (AMARE [1]) | Pre-emergence action against MATIN in % (MATIN [2]) | Pre-emergence action against VERPE in % (VERPE [3]) | Post-emergence action against AMARE in % (AMARE [4]) | Post-emergence action against MATIN in % (MATIN [5]) | Post-emergence action against PHBPU in % (PHBPU) | Post-emergence action against STEME in % (STEME [6]; 320 g/ha) | Post-emergence action against STEME in % (STEME [6]; 1280 g/ha) | Post-emergence action against VIOTR in % (VIOTR) | Pre-emergence action at 1280 g/ha against ECHCG in % (ECHCG [7]) | Pre-emergence action against SETVI in % (SETVI [8]) | Pre-emergence action against STEME in % (STEME [9]) | herbicidal efficacy against harmful plants in the case of pre-emergence treatment (harmful plants) | Post-emergence action against VERPE in % (VERPE [10]) | Post-emergence action against ECHCG in % (ECHCG [11]) | Post-emergence action against SETVI in % (SETVI [12]) |
| --- | --- | --- | --- | --- | --- | --- | --- | --- | --- | --- | --- | --- | --- | --- | --- | --- | --- |
| COC(=O)COc1nn(-c2cccc(F)c2)c(-c2ccccc2)c1C#N [I-023] | 90% | 90% | 100% | 90% | 80% | 80% | 80% | 80% | 80% | 80% |  |  |  |  |  |  |  |
| CC(Oc1nn(-c2ccccc2)c(-c2ccc(F)cc2)c1Br)C(=O)O (stereo not drawn) [I-138, 2-{[4-Bromo-5-(4-fluorophenyl)-1-phenyl-1H-pyrazol-3-yl]oxy}propanoic acid] |  | 100% |  |  |  |  |  |  | 100% |  | 100% | 100% | 100% | good herbicidal efficacy |  |  |  |
| COC(=O)COc1nn(-c2ccc(Cl)cc2)c(-c2cccc(F)c2)c1C#N [I-048] |  |  | 80% |  |  |  |  |  |  |  |  |  |  |  | 80% |  |  |
| C=CCNC(=O)COc1nn(-c2ccccc2F)c(-c2ccc(F)c(F)c2)c1Br [III-053] |  | 90% |  |  |  | 90% |  |  | 100% |  | 100% | 100% | 100% | good herbicidal efficacy |  | 100% | 100% |
| NCc1ccccc1.O=C(O)COc1nn(-c2cccc(F)c2)c(-c2ccccc2)c1I [II-13] |  | 100% |  |  |  | 100% |  |  |  |  |  |  | 90% | good herbicidal efficacy |  |  |  |
| COC(=O)COc1nn(-c2cccc(F)c2)c(-c2ccccc2)c1Cl [I-016] |  | 100% | 90% |  | 80% |  | 80% |  | 80% |  |  |  | 80% |  |  | 80% | 80% |

— patent publication US20230066946A1, “1,5-DIPHENYLPYRAZOLYL-3-OXYALKYL ACIDS AND 1-PHENYL-5-THIENYLPYRAZOLYL-3-OXYALKYL ACIDS AND THE USE THEREOF FOR CONTROL OF UNWANTED PLANT GROWTH” (Bayer Aktiengesellschaft, priority 2019, published 2023)
